Test results reported in patent publication US20040103451A1, “Abscisic acid 8'-and 7'-hydroxylase genes and related sequences from plants” (priority 2003, published 2004).

Assays:
CYP72A7 = assay: biotransformation of (+)-ABA by yeast expressing CYP72A7, LC/MS/MS of culture media; assay type: cell-based, Arabidopsis thaliana
Protocol: FIG. 6. Heterologous expression of an Arabidopsis P450 ABA 7′-hydroxylase activity in yeast. The CYP72A7 cDNA from Arabidopsis thaliana was inserted into the pYeDP60 vector, transformed into the WAT11 yeast strain (but not the WAT21 yeast strain) and analyzed for the ability to metabolize (+)-ABA. The biotransformation of (+)-ABA to 7′-hydroxyABA was assessed by High Performance Liquid Chromatography—Mass Spectrometry. (HPLC/MS/MS) 7′-hydroxyABA was excreted into the media. Measured activity was limited by access of enzyme to the substrate (ABA).
For yeast expression, the cDNAs were transferred into the expression vector pYeDP60 (Pompon D., et al., 1996, Method Enzymol 272: 51-64), and purified recombinant plasmid was subsequently transformed into WAT 11 and WAT 21 yeast strains over-expressing the Arabidopsis cytochrome P450 reductases, CTR1 and CTR2, respectively (Pompon et al., ibid). […]
For expression analysis the cultures were grown for two days on SC minus URA agar plates at 30° C. […] One to 10 mls of the sample was loaded onto an Oasis HLB column (Waters) to purify ABA and ABA-metabolites and the resulting eluant was analyzed by LC/MS/MS.

pJK6-29 mRNA = assay type: cell-based, corn
Protocol: Total RNA isolated from non-ABA-induced and ABA-induced (9 hr at […] (+)-ABA) BMS corn suspension was probed with radiolabeled pJK6-29. […] Further Northern blot analysis was carried out. In this experiment, the time course of gene expression was compared with the appearance of ABA 8'-hydroxylase activity. ABA 8'-hydroxylase activity was determined by in vitro assay (see Krochko J. E., et al., 1998, Plant Physiol 118: 849-860) with isolated microsomes isolated from BMS corn suspension cells at defined periods after the addition of 200 μM (+)-ABA. Enzyme activity was assayed at 0 (control), 3, 6, 9, 12, 16, 20.5, 25.5 and 28.5 hours after the addition of (+)-ABA. Total RNA was extracted from duplicate tissue samples and expression of the P450 clone, pJK6-29, was determined by Northern blot analysis. The time-course of mRNA induction for pJK6-29 is consistent with the appearance of ABA 8'-hydroxylase activity (FIG. 5).

ABA 8′-hydroxylase [1] = settings: cited from earlier work; for inhibition of induction of ABA 8′-hydroxylase: corn suspension cells
ABA 8′-hydroxylase [2] = settings: microsomal enzyme, BMS corn suspension cells; cited from earlier work

In the case of `CC1=CC(=O)CC(C)(C)[C@@]1(O)/C=C/C(C)=C\C(=O)O` [(+)-ABA, S-(+)-abscisic acid], the ABA hydroxylase activity (CYP72A7; WAT21 yeast strain) is reported as “did not support any ABA hydroxylase activity”, the “ABA 7′-hydroxylase activity (conversion to 7′-hydroxyABA)” value (CYP72A7; pYeDP60.Ath30-2 in WAT11 yeast strain, (+)-ABA 20 μM to 50 μM, 24 hours) is reported as “ABA 7′-hydroxylase activity was demonstrated” and the “regulation of pJK6-29 P450 mRNA expression” value (pJK6-29 mRNA) is reported as “upregulated”. For the same compound, the “time of peak ABA 8′-hydroxylase activity after addition of (+)-ABA” value (ABA 8′-hydroxylase [1]; BMS corn suspension culture medium) was 16 h and the “induction of ABA 8′-hydroxylase” value (ABA 8′-hydroxylase [1]; maize BMS suspension cultured cells) was “induced”.
For `Clc1ccc(N2N=N[C@@H]3[C@@H]4C[C@@H]([C@H]5N=N[C@@H]45)[C@@H]32)cc1` [tetcyclacis], the “inhibition of ABA 8′-hydroxylase” value (ABA 8′-hydroxylase [2]) is listed as “inhibited”.
In the case of `C[C@@H]1C[C@@H]([C@H](O)CC2CC(=O)NC(=O)C2)C(=O)[C@@H](C)C1` [cycloheximide], the “inhibition of induction of ABA 8′-hydroxylase” value (ABA 8′-hydroxylase [1]) is given as “inhibited”.
For `[C-]#[O+]` [CO], the “inhibition of ABA 8′-hydroxylase” value (ABA 8′-hydroxylase [2]) is listed as “inhibited”.
For “oxidized cytochrome c: inhibitor of ABA 8′-hydroxylase”, the “inhibition of ABA 8′-hydroxylase” value (ABA 8′-hydroxylase [2]) is listed as “inhibited”.
For `Nc1ncnc2c1ncn2[C@@H]1O[C@H](CO)C[C@H]1O` [cordecypin], the “inhibition of induction of ABA 8′-hydroxylase” value (ABA 8′-hydroxylase [1]) is listed as “inhibited”.
